Measurements reported in PubChem BioAssay AID1918944 (Molecular Pharmacology Branch, DTP, NCI, 2023).

Test system: 786-0 complex spheroid viability
Experiment: Anticancer human tumor 786-0 cell line growth inhibition;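 also: spheroids exposed to agents for seven days before readout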
Details: for IC50: curve of first compound; for viability, T/C: stronger effect = lower value
Excerpt: Multicellular complex tumor spheroid response to LSD1 Inhibitor Iadademstat in combination with a variety of drugs and investigational agents in selected tumor cell lines
The current study was undertaken to assess response to LSD1 inhibitors in combination with standard-of-care drugs and investigational agents in solid tumor complex spheroid models as well as in the K-562 leukemia. Complex spheroids include a stromal component modeled by human endothelial cells (HUVEC) and fibroblasts modeled by human mesenchymal stem cells (MSCs). The concentration ranges selected for each drug and investigational agent were based upon clinically achievable concentrations if the clinical Cmax of the agent was known.
Compounds. The drugs and investigational agents used in this study are listed on Table 1. All of the agents used, including staurosporine (NSC755774) and gemcitabine (NSC613327), were obtained from the Developmental Therapeutics Program, NCI. FDA-approved anticancer drugs are available from the NCI at http://dtp.nci.nih.gov/branches/dscb/oncology_drugset_explanation.html. Drugs and investigational agents were >95% pure by proton nuclear magnetic resonance (NMR) and liquid chromatography/mass spectrometry (LC/MS). Stock solutions were prepared at 400x in DMSO, stored at -70 degrees C, and diluted in fresh medium prior to their use. The final concentration of DMSO in cell culture wells never exceeded 0.25% (v/v). The FDA-approved anticancer drug set is available from the Developmental Therapeutics Program at https://dtp.cancer.gov/organization/dscb/obtaining/available_plates.htm. All drugs and investigational agents were tested over a range starting from a high concentration at or near the clinical Cmax and decreasing in half-log increments. If the clinical Cmax for an agent had not been determined, the highest concentration tested was 10 microM.
Cell Lines. The patient-derived cancer cell (PDC) lines: 292921-168-R-J2-PDC, K24384-001-R-PDC, and 521955-158-R2-J5-PDC pancreatic carcinomas, 556581-035-R-J1 ovarian carcinoma, 324938-238-R-J1-PDC, 855422-203-R-J1-PDC and 883617-216-R-J1-PDC urothelial bladder carcinomas, 743489-274-T-PDC renal cell carcinoma, 138582-R-J1 Merkel cell tumor, K60290-347-R-J1 and K57222-313-R-J1-PDC glioblastomas, 653999-131-R-J2-PDC, LG0703-F948-PDC, and 349418-098-R-PDC non-small cell lung carcinomas, 885512-296-R-J2-PDC, 171881-019-R-J1-PDC breast carcinomas and 186277-243-T-J2-PDC and 233499-124-R-J2-PDC colon carcinomas were obtained from the NCI Patient-Derived Models Repository (PDMR, https://pdmr.cancer.gov). The established cell lines NCI/ADR-RES (RRID:CVCL_14520 and OVCAR-5 (RRID:CVCL_1628) ovarian carcinomas, 786-O (RRID:CVCL_1051) and A498 (RRID:CVCL_A498) renal cell carcinoma, NCI-H211 (ATCC, cat. CRL-5824; RRID:CVCL_1529), NCI-H196 (ATCC, cat. CRL-5823, RRID:CVCL_1509), SW 1271 (ATCC, cat. CRL-2177, RRID:CVCL_1716) and NCI-H1876 (ATCC, cat. CRL-5902, RRID:CVCL_1503) small cell lung carcinomas, MDA-MB-231 (RRID:CVCL_0062) and MDA-MB-468 (RRID:CVCL_0419)breast carcinomas (10-12). Pooled donor human umbilical vein endothelial cells (HUVEC, Lonza, cat. CC-2519) and human mesenchymal stem cells (hMSC, Lonza, cat. PT-2501) were purchased from Lonza (Walkersville, MD).
Cell Culture. All cells were maintained in an incubator at 37 degrees C and 5% CO2 with 95% humidity. The PDC lines were cultured according to standard operating procedures established by the NCI PDMR (https://pdmr.cancer.gov). Briefly all PDCs were thawed and cultured in Matrigel-coated flasks prepared with a working solution of 1X Ham's F-12 nutrient mix, without supplementation (Invitrogen, Waltham, MA, cat. 11765054), 100 U/mL penicillin-streptomycin (Invitrogen, cat. 15140122), and 2.5% Matrigel (Corning Inc., Corning, NY, cat. 354248) for the first three passages. […]

For `CC(C)CC(NC(=O)CNC(=O)c1cc(Cl)ccc1Cl)B1OC(=O)CC(CC(=O)O)(C(=O)O)O1` (stereo not given) + NC1CCC(NC2CC2c2ccccc2)CC1, the IC50 (second compound 0.1 µM) was 12.9 nM, the IC50 (second compound 0.316 µM) was 10.7 nM and the IC50 (second compound 1 µM) was 12 nM. The IC50 (second compound 3.16 µM) was 9.62 nM, the IC50 (second compound 10 µM) was 10.2 nM and the viability, T/C (second compound 0.1 µM, first compound 0.000316 µM) was 127%. It also gave a viability, T/C (second compound 0.1 µM, first compound 0.001 µM) of 123%, a viability, T/C (second compound 0.1 µM, first compound 0.00316 µM) of 110% and a viability, T/C (second compound 0.1 µM, first compound 0.01 µM) of 52.4%. The viability, T/C (second compound 0.1 µM, first compound 0.0316 µM) was 32.4%, the viability, T/C (second compound 0.1 µM, first compound 0.1 µM) was 9.25% and the viability, T/C (second compound 0.316 µM, first compound 0.000316 µM) was 129%. The viability, T/C (second compound 0.316 µM, first compound 0.001 µM) was 130%, the viability, T/C (second compound 0.316 µM, first compound 0.00316 µM) was 121% and the viability, T/C (second compound 0.316 µM, first compound 0.01 µM) was 51.6%. For the same compound, the viability, T/C (second compound 0.316 µM, first compound 0.0316 µM) was 30.7%, the viability, T/C (second compound 0.316 µM, first compound 0.1 µM) was 8.11% and the viability, T/C (second compound 1 µM, first compound 0.000316 µM) was 113%. The viability, T/C (second compound 1 µM, first compound 0.001 µM) was 128%, the viability, T/C (second compound 1 µM, first compound 0.00316 µM) was 112% and the viability, T/C (second compound 1 µM, first compound 0.01 µM) was 52.3%. For the same compound, the viability, T/C (second compound 1 µM, first compound 0.0316 µM) was 34.1%, the viability, T/C (second compound 1 µM, first compound 0.1 µM) was 10% and the viability, T/C (second compound 3.16 µM, first compound 0.000316 µM) was 109%. For the same compound, the viability, T/C (second compound 3.16 µM, first compound 0.001 µM) was 112%, the viability, T/C (second compound 3.16 µM, first compound 0.00316 µM) was 107% and the viability, T/C (second compound 3.16 µM, first compound 0.01 µM) was 46.7%. For the same compound, the viability, T/C (second compound 3.16 µM, first compound 0.0316 µM) was 29.5%, the viability, T/C (second compound 3.16 µM, first compound 0.1 µM) was 9.53% and the viability, T/C (second compound 10 µM, first compound 0.000316 µM) was 96.8%. For the same compound, the viability, T/C (second compound 10 µM, first compound 0.001 µM) was 91.4%, the viability, T/C (second compound 10 µM, first compound 0.00316 µM) was 82.1% and the viability, T/C (second compound 10 µM, first compound 0.01 µM) was 50.1%. It also gave a viability, T/C (second compound 10 µM, first compound 0.0316 µM) of 19.7% and a viability, T/C (second compound 10 µM, first compound 0.1 µM) of 7.29%.

`O=C(C=Cc1cccc(S(=O)(=O)Nc2ccccc2)c1)NO` + NC1CC1c1ccc(-c2cccc(O)c2)cc1 was tested, and the IC50 (second compound 0.1 µM) was 1300 nM, the IC50 (second compound 0.316 µM) was 1300 nM and the IC50 (second compound 1 µM) was 1250 nM. For the same compound, the IC50 (second compound 3.16 µM) was 1110 nM, the IC50 (second compound 10 µM) was 840 nM and the viability, T/C (second compound 0.1 µM, first compound 0.00949 µM) was 111%. It also gave a viability, T/C (second compound 0.1 µM, first compound 0.03 µM) of 107%, a viability, T/C (second compound 0.1 µM, first compound 0.0949 µM) of 111% and a viability, T/C (second compound 0.1 µM, first compound 0.3 µM) of 97%. For the same compound, the viability, T/C (second compound 0.1 µM, first compound 0.949 µM) was 66.1%, the viability, T/C (second compound 0.1 µM, first compound 3 µM) was 8.04% and the viability, T/C (second compound 0.316 µM, first compound 0.00949 µM) was 107%. The viability, T/C (second compound 0.316 µM, first compound 0.03 µM) was 107%, the viability, T/C (second compound 0.316 µM, first compound 0.0949 µM) was 109% and the viability, T/C (second compound 0.316 µM, first compound 0.3 µM) was 96.1%. The viability, T/C (second compound 0.316 µM, first compound 0.949 µM) was 66.3%, the viability, T/C (second compound 0.316 µM, first compound 3 µM) was 7.18% and the viability, T/C (second compound 1 µM, first compound 0.00949 µM) was 106%. The viability, T/C (second compound 1 µM, first compound 0.03 µM) was 110%, the viability, T/C (second compound 1 µM, first compound 0.0949 µM) was 110% and the viability, T/C (second compound 1 µM, first compound 0.3 µM) was 92.5%. The viability, T/C (second compound 1 µM, first compound 0.949 µM) was 63.9%, the viability, T/C (second compound 1 µM, first compound 3 µM) was 7.4% and the viability, T/C (second compound 3.16 µM, first compound 0.00949 µM) was 98.5%. It also gave a viability, T/C (second compound 3.16 µM, first compound 0.03 µM) of 99.2%, a viability, T/C (second compound 3.16 µM, first compound 0.0949 µM) of 110% and a viability, T/C (second compound 3.16 µM, first compound 0.3 µM) of 90.7%. For the same compound, the viability, T/C (second compound 3.16 µM, first compound 0.949 µM) was 57.4%, the viability, T/C (second compound 3.16 µM, first compound 3 µM) was 4.98% and the viability, T/C (second compound 10 µM, first compound 0.00949 µM) was 92.5%. The viability, T/C (second compound 10 µM, first compound 0.03 µM) was 96.9%, the viability, T/C (second compound 10 µM, first compound 0.0949 µM) was 92.2% and the viability, T/C (second compound 10 µM, first compound 0.3 µM) was 87.2%. It also gave a viability, T/C (second compound 10 µM, first compound 0.949 µM) of 45.6% and a viability, T/C (second compound 10 µM, first compound 3 µM) of 2.44%.
